Data as given in patent US10913714B2, “Pyrrole sulfonyl derivative, preparation method and medical use thereof” (JIANGSU CAREPHAR PHARMACEUTICAL CO., LTD, priority 2015, dated 2021).
Counter-ions that a name gives are not always drawn.

Tests used:
[1] = target: T1, hERG potassium channel (Homo sapiens, UniProt Q12809); test: Whole cell patch clamp, inhibition of hERG tail current; assay type: cell-based; details: for IC50: human, hERG cells (host cell line not named), pH 7.4, whole cell patch clamp, logistic fit; for Inhibition ratio of max. test concentration (hERG current): max. test concentration 100 μM
T1 construct: expressed in transfected cells
T1 sequence (Q12809 whole entry): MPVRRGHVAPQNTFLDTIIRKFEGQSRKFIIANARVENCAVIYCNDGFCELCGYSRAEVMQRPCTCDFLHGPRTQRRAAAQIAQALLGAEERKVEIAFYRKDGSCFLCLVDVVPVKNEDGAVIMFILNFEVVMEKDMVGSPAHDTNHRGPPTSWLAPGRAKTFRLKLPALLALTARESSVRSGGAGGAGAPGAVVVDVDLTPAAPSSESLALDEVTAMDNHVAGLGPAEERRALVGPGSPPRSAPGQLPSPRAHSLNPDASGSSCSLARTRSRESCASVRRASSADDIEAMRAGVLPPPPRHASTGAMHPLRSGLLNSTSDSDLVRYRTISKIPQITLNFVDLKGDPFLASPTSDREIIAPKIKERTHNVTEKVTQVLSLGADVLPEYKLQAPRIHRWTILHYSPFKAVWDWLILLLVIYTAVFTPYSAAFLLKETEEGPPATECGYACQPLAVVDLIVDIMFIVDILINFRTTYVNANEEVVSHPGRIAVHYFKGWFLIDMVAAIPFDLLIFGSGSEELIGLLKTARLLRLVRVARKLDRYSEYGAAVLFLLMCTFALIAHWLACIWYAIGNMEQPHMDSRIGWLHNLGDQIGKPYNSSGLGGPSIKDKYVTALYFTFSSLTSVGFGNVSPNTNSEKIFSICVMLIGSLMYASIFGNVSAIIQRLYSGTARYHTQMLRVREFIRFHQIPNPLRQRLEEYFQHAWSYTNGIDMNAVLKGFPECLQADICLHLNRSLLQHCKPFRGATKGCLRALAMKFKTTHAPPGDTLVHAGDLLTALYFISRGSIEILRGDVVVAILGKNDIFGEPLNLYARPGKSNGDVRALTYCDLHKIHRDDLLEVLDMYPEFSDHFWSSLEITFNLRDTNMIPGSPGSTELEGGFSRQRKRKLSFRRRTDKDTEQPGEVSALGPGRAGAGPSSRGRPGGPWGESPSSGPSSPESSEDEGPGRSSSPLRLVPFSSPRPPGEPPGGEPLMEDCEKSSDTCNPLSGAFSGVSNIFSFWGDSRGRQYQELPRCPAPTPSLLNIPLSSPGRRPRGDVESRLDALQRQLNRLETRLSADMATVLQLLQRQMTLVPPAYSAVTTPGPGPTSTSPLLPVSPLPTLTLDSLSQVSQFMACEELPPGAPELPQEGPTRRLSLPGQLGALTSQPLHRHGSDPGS
Description: Test Case 2: Studies on the Effect of Compounds EXP 1, TAK-438 and EXP 12 on hERG Potassium Channel Testing System 1) Cell culture: the hERG cell is cultured in a routine way, which is subcultured in a DMEM containing 10% of fetal calf serum and 250 μg/ml of G418. 2) Fluid preparation: the composition of the extracellular fluid used in the experiment of whole cell patch clamp comprises (mM): NaCl 145, MgCl21, KCl 4, Glucose 10, HEPES 10 and CaCl22; adjusting the pH value of NaOH to 7.4 and adjusting the value of osmotic pressure to 300 mOsm with sucrose. The composition of the intracellular fluid comprises (mM):KCl 140; MgCl 21; EGTA 5; HEPES 10 and Na2ATP 4; adjusting the pH value of KOH to 7.2 and adjusting the value of osmotic pressure to 290 mOsm with sucrose.
Main composition of the extracellular and intracellular fluid
Test Procedure 1) Electrophysiological recording: taking out one culture dish for each test; cleaning it with the extracellular fluid twice and placing it on the inverted microscope stage. The experiment of whole cell patch clamp is conducted at ambient temperature; the resistance at the microelectrode tip of the used borosilicate glass is 3-5 MQ. 2) Voltage stimulus plan and current record: clamping down the membrane potential to −80 mV under the whole-cell recording mode; giving +50 mV of depolarized voltage stimulus to the cell every 30 s and lasting for 2 s, then repolarizing it to −50 mV and lasting for 3 s, thus, the tail current of hERG can be extracted. Giving 50 ms, −50 mV repolarized voltage to the cell before depolarized voltage stimulus; the current recorded at such voltage is as the base line for calculating the tail current of hERG. Only the cells meet the recording standard can be used in the test of the compounds to be tested. The hERG tail current should be recorded stably at last for 3 min in the extracellular fluid before the compound is added. After perfusion of drugs, it can be regarded that the drug effect reaches a steady state if the change of the amplitude of hERG tail current is less than 5%. If the current fails to reach a steady state in 6 min, the test should also be terminated. 3) Testing standard: the membrane resistance in the experiment should be more than 1,000 MQ. The initial current should be more than 300 pA. The series resistance should be less than 12 MQ after the whole-cell recording mode is constructed. The leakage current is less than 10% of the ionic channel current (taking −80 pA as the peak value). Data Analysis
Using Clampex 10.2 to record the original data and saving the data in the format of *abf. Using pCLAMP 10.1 to conduct data collection and analysis. Selecting 4-5 sweeps when the current is in a steady state before the compound is added; calculating the average peak value to serve as the contrasted current amplitude. Selecting 4-5 sweeps when the current is in a steady state after the compound is added; calculating the average peak value to serve as the residual amplitude of the inhibited current. The inhibition ratio of the compound to be tested to hERG current is calculated as per the equation as: % inhibition ratio={1−(current residual amplitude)/(contrasted current amplitude)}*100
After the inhibition ratio (average value±standard deviation) of the compound to be tested to the hERG current of different concentrations is obtained through the above computing method, the data with logistic equation should be fitted to obtain the value of IC50.

[2] = Acute toxicity test, single gavage in rats; assay type: in vivo; details: SD rat, gavage once, observed 14 days
Description: Test content: single administration dosage: 2000 mg/kg, 600 mg/kg; administration by gavage: once; volume: 10 ml/kg; observing for 14 days for the rat's behavior and weight each day.
Experimental grouping: black group, Group of 600 mg/kg, Group of 2000 mg/kg; 4 rats each group; half male and half female.

Compound | IC50 [1] [µM] | Inhibition ratio of max. test concentration (hERG current) [1] [%] | Death after single oral dose ([2]; 600 mg/kg) | Impact on the rat's weight ([2]; 600 mg/kg) | Death after single oral dose ([2]; 2000 mg/kg)
CNCc1cc(-c2ccccc2F)n(S(=O)(=O)c2cccc(OCCCOC)c2)c1 [EXP 1, 1-(5-(2-fluorobenzene)-1-((3-(3-methoxypropoxy)phenyl)sulfonyl)-1H-pyrrole-3-yl)-N-methyl methylamine] | 18.7 | 86.21 ± 1.67 | no death | not obvious | no death
CNCc1cc(-c2ccccc2F)n(S(=O)(=O)c2cccnc2)c1 [TAK-438, 5-(2-fluorophenyl)-N-methyl-1-(3-pyridylsulfonyl)-1H-pyrrole-3-methamine fumarate] | 15.9 | 88.23 ± 3.18 | – | inhibition of weight gain | all died
